In PubChem BioAssay (NCI):
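1) Cells in 96-well plates. 2) Compound, 48 h, 5 concentrations. 3) Linear interpolation between surrounding doses. 4) Unreached endpoint = highest concentration. Abbreviation: GI50, concentration required for 50% inhibition of growth. TGI: total growth inhibition.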

Assays:
Assay in all cases: growth of human tumour cells (NCI), 48 h; in the data active = GI50 below about 0.43 µM; inactive = the rest
MOLT-4 leukemia = tested on: MOLT-4 leukemia
HL-60(TB) leukemia = tested on: HL-60(TB) leukemia
DU-145 prostate = tested on: DU-145 prostate
A549 NSCLC = tested on: A549 NSCLC
MALME-3M melanoma = tested on: MALME-3M melanoma
HOP-62 NSCLC = tested on: HOP-62 NSCLC
RPMI-8226 leukemia = tested on: RPMI-8226 leukemia
OVCAR-5 ovarian = tested on: OVCAR-5 ovarian
UO-31 renal = tested on: UO-31 renal
NCI-H522 lung = tested on: NCI-H522 lung
NCI/ADR-RES ovarian = tested on: NCI/ADR-RES ovarian
SK-MEL-28 melanoma = tested on: SK-MEL-28 melanoma
UACC-62 melanoma = tested on: UACC-62 melanoma
SK-MEL-5 melanoma = tested on: SK-MEL-5 melanoma
HS 578T breast = tested on: HS 578T breast
786-0 renal = tested on: 786-0 renal
SN12C renal = tested on: SN12C renal
U251 CNS = tested on: U251 CNS
HT29 colon = tested on: HT29 colon
K-562 leukemia = tested on: K-562 leukemia
A498 renal = tested on: A498 renal
HCT-116 colon = tested on: HCT-116 colon
COLO 205 colon = tested on: COLO 205 colon
MDA-MB-231 breast = tested on: MDA-MB-231 breast
OVCAR-4 ovarian = tested on: OVCAR-4 ovarian
SW-620 colon = tested on: SW-620 colon
PC-3 prostate = tested on: PC-3 prostate
CCRF-CEM leukemia = tested on: CCRF-CEM leukemia
OVCAR-3 ovarian = tested on: OVCAR-3 ovarian
SK-MEL-2 melanoma = tested on: SK-MEL-2 melanoma
SF-295 CNS = tested on: SF-295 CNS
UACC-257 melanoma = tested on: UACC-257 melanoma
NCI-H23 lung = tested on: NCI-H23 lung
SF-539 CNS = tested on: SF-539 CNS
SNB-19 CNS = tested on: SNB-19 CNS
M14 melanoma = tested on: M14 melanoma
SR leukemia = tested on: SR leukemia
HOP-92 NSCLC = tested on: HOP-92 NSCLC
SF-268 CNS = tested on: SF-268 CNS
EKVX NSCLC = tested on: EKVX NSCLC
T-47D breast = tested on: T-47D breast
CAKI-1 renal = tested on: CAKI-1 renal
TK-10 renal = tested on: TK-10 renal
ACHN renal = tested on: ACHN renal
IGROV1 ovarian = tested on: IGROV1 ovarian
KM12 colon = tested on: KM12 colon
HCT-15 colon = tested on: HCT-15 colon
OVCAR-8 ovarian = tested on: OVCAR-8 ovarian
MDA-MB-435 = tested on: MDA-MB-435
MCF7 breast = tested on: MCF7 breast
NCI-H460 lung = tested on: NCI-H460 lung
BT-549 breast = tested on: BT-549 breast
NCI-H226 lung = tested on: NCI-H226 lung
RXF 393 renal = tested on: RXF 393 renal
LOX IMVI melanoma = tested on: LOX IMVI melanoma
SK-OV-3 ovarian = tested on: SK-OV-3 ovarian
HCC-2998 colon = tested on: HCC-2998 colon
SNB-75 CNS = tested on: SNB-75 CNS

O=C(O)c1ccc(Oc2nc3ccccc3s2)cc1
> 100 µM: TGI (MOLT-4 leukemia) | TGI (HL-60(TB) leukemia) | TGI (DU-145 prostate) | TGI (A549 NSCLC) | TGI (MALME-3M melanoma) | TGI (HOP-62 NSCLC) | TGI (RPMI-8226 leukemia) | TGI (OVCAR-5 ovarian) | TGI (UO-31 renal) | TGI (NCI-H522 lung) | TGI (NCI/ADR-RES ovarian) | TGI (SK-MEL-28 melanoma) | TGI (UACC-62 melanoma) | TGI (SK-MEL-5 melanoma) | TGI (HS 578T breast) | TGI (786-0 renal) | TGI (SN12C renal) | TGI (U251 CNS) | TGI (HT29 colon) | TGI (K-562 leukemia) | TGI (A498 renal) | TGI (HCT-116 colon) | TGI (COLO 205 colon) | TGI (MDA-MB-231 breast) | TGI (OVCAR-4 ovarian) | TGI (SW-620 colon) | TGI (PC-3 prostate) | TGI (CCRF-CEM leukemia) | TGI (OVCAR-3 ovarian) | TGI (SK-MEL-2 melanoma) | TGI (SF-295 CNS) | TGI (UACC-257 melanoma) | TGI (NCI-H23 lung) | TGI (SF-539 CNS) | TGI (SNB-19 CNS) | TGI (M14 melanoma) | TGI (SR leukemia) | TGI (HOP-92 NSCLC) | TGI (SF-268 CNS) | TGI (EKVX NSCLC) | TGI (T-47D breast) | TGI (CAKI-1 renal) | TGI (TK-10 renal) | TGI (ACHN renal) | TGI (IGROV1 ovarian) | TGI (KM12 colon) | TGI (HCT-15 colon) | TGI (OVCAR-8 ovarian) | TGI (MDA-MB-435) | TGI (MCF7 breast) | TGI (NCI-H460 lung) | TGI (BT-549 breast) | TGI (NCI-H226 lung) | TGI (RXF 393 renal) | TGI (LOX IMVI melanoma) | TGI (SK-OV-3 ovarian)

O=c1[nH]c2ccccc2n2cc3ccccc3c12
13.8 µM: TGI (NCI-H226 lung)
33.3 µM: TGI (OVCAR-8 ovarian)
32.2 µM: TGI (A549 NSCLC)
26.6 µM: TGI (UO-31 renal)
inactive: GI50 (MOLT-4 leukemia) 3.62 µM | GI50 (DU-145 prostate) 7.61 µM | GI50 (A549 NSCLC) 5.9 µM | GI50 (MALME-3M melanoma) 25.1 µM | GI50 (HOP-62 NSCLC) 4.42 µM | GI50 (RPMI-8226 leukemia) 3.7 µM | GI50 (OVCAR-5 ovarian) 10.4 µM | GI50 (UO-31 renal) 12.6 µM | GI50 (NCI-H522 lung) 13.7 µM | GI50 (NCI/ADR-RES ovarian) 6.45 µM | GI50 (SK-MEL-28 melanoma) 22.6 µM | GI50 (UACC-62 melanoma) 3.22 µM | GI50 (SK-MEL-5 melanoma) 1.89 µM | GI50 (HS 578T breast) 0.52 µM | GI50 (786-0 renal) 4.23 µM | GI50 (SN12C renal) 1.67 µM | GI50 (U251 CNS) 3.25 µM | GI50 (HT29 colon) 4.37 µM | GI50 (A498 renal) 11.1 µM | GI50 (HCT-116 colon) 2.12 µM | GI50 (COLO 205 colon) 4.52 µM | GI50 (MDA-MB-231 breast) 0.948 µM | GI50 (OVCAR-4 ovarian) 7.2 µM | GI50 (SW-620 colon) 3.69 µM | GI50 (PC-3 prostate) 5.74 µM | GI50 (CCRF-CEM leukemia) 5.93 µM | GI50 (OVCAR-3 ovarian) 18.6 µM | GI50 (SK-MEL-2 melanoma) 20.6 µM | GI50 (SF-295 CNS) 17.9 µM | GI50 (UACC-257 melanoma) 15.3 µM | GI50 (NCI-H23 lung) 11.1 µM | GI50 (SF-539 CNS) 5.11 µM | GI50 (SNB-19 CNS) 8.93 µM | GI50 (M14 melanoma) 6.39 µM | GI50 (SR leukemia) 2.87 µM | GI50 (HOP-92 NSCLC) 3.99 µM | GI50 (SF-268 CNS) 21.6 µM | GI50 (EKVX NSCLC) 4.74 µM | GI50 (T-47D breast) 7.45 µM | GI50 (CAKI-1 renal) 17.6 µM | GI50 (TK-10 renal) 20.6 µM | GI50 (ACHN renal) 1.81 µM | GI50 (IGROV1 ovarian) 10.3 µM | GI50 (KM12 colon) 19.2 µM | GI50 (HCC-2998 colon) 5.84 µM | GI50 (HCT-15 colon) 3.31 µM | GI50 (OVCAR-8 ovarian) 5.28 µM | GI50 (MDA-MB-435) 16.3 µM | GI50 (MCF7 breast) 10.5 µM | GI50 (SNB-75 CNS) 13.4 µM | GI50 (NCI-H460 lung) 7.8 µM | GI50 (BT-549 breast) 18.9 µM | GI50 (NCI-H226 lung) 2.88 µM | GI50 (RXF 393 renal) 6.26 µM | GI50 (LOX IMVI melanoma) 3 µM | GI50 (SK-OV-3 ovarian) 12.4 µM
22.9 µM: TGI (M14 melanoma)
29.1 µM: TGI (PC-3 prostate)
87.1 µM: TGI (SF-268 CNS)
46.5 µM: TGI (MALME-3M melanoma)
69.4 µM: TGI (EKVX NSCLC)
25.4 µM: TGI (IGROV1 ovarian)
18.6 µM: TGI (HCT-15 colon)
6.32 µM: TGI (SN12C renal)
12 µM: TGI (LOX IMVI melanoma)
40 µM: TGI (KM12 colon)
32.1 µM: TGI (NCI/ADR-RES ovarian)
18.5 µM: TGI (HOP-92 NSCLC)
37.7 µM: TGI (DU-145 prostate)
22.6 µM: TGI (RPMI-8226 leukemia)
36.6 µM: TGI (NCI-H23 lung)
13.4 µM: TGI (U251 CNS)
10.2 µM: TGI (MDA-MB-231 breast)
7.7 µM: TGI (SR leukemia)
34.7 µM: TGI (HS 578T breast)
15.8 µM: TGI (UACC-62 melanoma)
64.3 µM: TGI (BT-549 breast)
12.3 µM: TGI (HCT-116 colon)
8.77 µM: TGI (MOLT-4 leukemia)
89.7 µM: TGI (OVCAR-4 ovarian)
35.8 µM: TGI (SF-295 CNS) | TGI (SK-OV-3 ovarian)
> 100 µM: TGI (SK-MEL-28 melanoma) | TGI (HT29 colon) | TGI (COLO 205 colon) | TGI (SW-620 colon) | TGI (SNB-19 CNS) | TGI (T-47D breast) | TGI (MCF7 breast) | TGI (NCI-H460 lung)
32.3 µM: TGI (NCI-H522 lung)
31 µM: TGI (MDA-MB-435)
14.9 µM: TGI (SK-MEL-5 melanoma)
18.1 µM: TGI (786-0 renal)
60.5 µM: TGI (CCRF-CEM leukemia)
26.7 µM: TGI (A498 renal)
22.2 µM: TGI (SF-539 CNS)
36.7 µM: TGI (OVCAR-3 ovarian)
33.1 µM: TGI (UACC-257 melanoma)
20.8 µM: TGI (HCC-2998 colon)
7.18 µM: TGI (ACHN renal)
38.8 µM: TGI (SK-MEL-2 melanoma)
29.9 µM: TGI (RXF 393 renal)
35.5 µM: TGI (OVCAR-5 ovarian) | TGI (CAKI-1 renal)
36.9 µM: TGI (TK-10 renal)
17.9 µM: TGI (HOP-62 NSCLC)
74.4 µM: TGI (SNB-75 CNS)
